System: mice
Assay: Acute toxicity in female and male mice after oral administration of a single dose
Type: in vivo
Conditions: observation time 14 days
Method: (§1) The acute toxicity was determined in home-bred female and male mice having body weights of from 20 to 26 gm after oral administration (suspension in a 1% methyl cellulose solution) of a single dose. Observation time: 14 days.

**Q.** Which animals died does the source give for `CCCC(NC(=O)Cc1ccc(C(=O)O)cc1)c1ccccc1N1CCCCC1` (racemic) [J, (±)-4-[(1-(2-Piperidino-phenyl)-1-butyl)-aminocarbonylmethyl]-benzoic acid] here?
**A.** 0 out of 10

**Q.** For `CC/C=C(\NC(=O)Cc1ccc(C(=O)O)cc1)c1ccccc1N1CCCCC1` [A, (Z)-4-[(1-(2-Piperidino-phenyl)-1-buten-1yl)-aminocarbonylmethyl]-benzoicacid], which animals died is on record?
**A.** 0 out of 6

**Q.** With `Cc1ccc(C(NC(=O)Cc2ccc(C(=O)O)cc2)c2ccccc2N2CCCCC2)cc1` (stereo not drawn) [AA, 4-[(α-(4-Methyl-phenyl)-2-piperidino-benzyl)-aminocarbonylmethyl]-benzoic acid] as the compound, how does the animals died read?
**A.** 0 out of 10

**Q.** Which animals died does the source give for `Cc1cccc(C(NC(=O)Cc2ccc(C(=O)O)cc2)c2ccccc2N2CCCCC2)c1` (stereo not drawn) [AB, 4-[(α-(3-Methyl-phenyl)-2-piperidino-benzyl)-aminocarbonylmethyl]-benzoic acid] here?
**A.** 0 out of 10

**Q.** For `O=C(Cc1ccc(C(=O)O)cc1)NC(c1ccc(F)cc1)c1ccccc1N1CCCCC1` (stereo not drawn) [AC, 4-[(α-(4-Fluoro-phenyl)-2-piperidino-benzyl)-aminocarbonylmethyl]-benzoic acid], which animals died is on record?
**A.** 0 out of 10

System: not listed separately
Assay: as above
Type: in vivo
Conditions: mouse, in vivo, observation time 14 days, read-out: Peroral Toxicity
Method: as §1

**Q.** With `CCCC(NC(=O)Cc1ccc(C(=O)O)cc1)c1ccccc1N1CCCCC1` (racemic) [J, (±)-4-[(1-(2-Piperidino-phenyl)-1-butyl)-aminocarbonylmethyl]-benzoic acid] as the compound, how does the LD50 at 336 h read?
**A.** > 2000 mg/kg

**Q.** For `CC/C=C(\NC(=O)Cc1ccc(C(=O)O)cc1)c1ccccc1N1CCCCC1` [A, (Z)-4-[(1-(2-Piperidino-phenyl)-1-buten-1yl)-aminocarbonylmethyl]-benzoicacid], which LD50 at 336 h is on record?
**A.** > 1000 mg/kg

**Q.** With `Cc1ccc(C(NC(=O)Cc2ccc(C(=O)O)cc2)c2ccccc2N2CCCCC2)cc1` (stereo not drawn) [AA, 4-[(α-(4-Methyl-phenyl)-2-piperidino-benzyl)-aminocarbonylmethyl]-benzoic acid] as the compound, how does the LD50 at 336 h read?
**A.** > 1000 mg/kg

**Q.** Which LD50 at 336 h does the source give for `Cc1cccc(C(NC(=O)Cc2ccc(C(=O)O)cc2)c2ccccc2N2CCCCC2)c1` (stereo not drawn) [AB, 4-[(α-(3-Methyl-phenyl)-2-piperidino-benzyl)-aminocarbonylmethyl]-benzoic acid] here?
**A.** > 1000 mg/kg

**Q.** With `O=C(Cc1ccc(C(=O)O)cc1)NC(c1ccc(F)cc1)c1ccccc1N1CCCCC1` (stereo not drawn) [AC, 4-[(α-(4-Fluoro-phenyl)-2-piperidino-benzyl)-aminocarbonylmethyl]-benzoic acid] as the compound, how does the LD50 at 336 h read?
**A.** > 1000 mg/kg

System: blood-sugar
Assay: Blood-sugar lowering activity in starved female rats after oral administration
Type: in vivo
Conditions: 1 mg/kg orally, 3 hours, n.s. = not statistically significant

**Q.** For `Cc1cccc(C(NC(=O)Cc2ccc(C(=O)O)cc2)c2ccccc2N2CCCCC2)c1` (stereo not drawn) [AB, 4-[(α-(3-Methyl-phenyl)-2-piperidino-benzyl)-aminocarbonylmethyl]-benzoic acid], which “Blood-sugar lowering activity, percent as compared with the controls” value (shortened to “Blood-sugar lowering activity, percent”) is on record?
**A.** n.s.

Same assay, conditions: 1 mg/kg orally, 4 hours, n.s. = not statistically significant

**Q.** With `Cc1ccc(C(NC(=O)Cc2ccc(C(=O)O)cc2)c2ccccc2N2CCCCC2)cc1` (stereo not drawn) [AA, 4-[(α-(4-Methyl-phenyl)-2-piperidino-benzyl)-aminocarbonylmethyl]-benzoic acid] as the compound, how does the “Blood-sugar lowering activity, percent” value read?
**A.** n.s.

**Q.** Which “Blood-sugar lowering activity, percent” value does the source give for `Cc1cccc(C(NC(=O)Cc2ccc(C(=O)O)cc2)c2ccccc2N2CCCCC2)c1` (stereo not drawn) [AB, 4-[(α-(3-Methyl-phenyl)-2-piperidino-benzyl)-aminocarbonylmethyl]-benzoic acid] here?
**A.** n.s.

Same assay, conditions: 5 mg/kg orally, 4 hours, n.s. = not statistically significant

**Q.** With `Cc1ccc(C(NC(=O)Cc2ccc(C(=O)O)cc2)c2ccccc2N2CCCCC2)cc1` (stereo not drawn) [AA, 4-[(α-(4-Methyl-phenyl)-2-piperidino-benzyl)-aminocarbonylmethyl]-benzoic acid] as the compound, how does the “Blood-sugar lowering activity, percent” value read?
**A.** n.s.

Same assay, conditions: Rattus norvegicus, po, 1 mg/kg orally, 1 hour, n.s. = not statistically significant, read-out: Blood-sugar lowering activity, percent as compared with the controls

**Q.** For `CCCC(NC(=O)Cc1ccc(C(=O)O)cc1)c1ccccc1N1CCCCC1` (racemic) [J, (±)-4-[(1-(2-Piperidino-phenyl)-1-butyl)-aminocarbonylmethyl]-benzoic acid], which change in vivo at 1 mg/kg is on record?
**A.** -38%

**Q.** Which change in vivo at 1 mg/kg does the source give for `CC/C=C(\NC(=O)Cc1ccc(C(=O)O)cc1)c1ccccc1N1CCCCC1` [A, (Z)-4-[(1-(2-Piperidino-phenyl)-1-buten-1yl)-aminocarbonylmethyl]-benzoicacid] here?
**A.** -43%

**Q.** For `Cc1ccc(C(NC(=O)Cc2ccc(C(=O)O)cc2)c2ccccc2N2CCCCC2)cc1` (stereo not drawn) [AA, 4-[(α-(4-Methyl-phenyl)-2-piperidino-benzyl)-aminocarbonylmethyl]-benzoic acid], which change in vivo at 1 mg/kg is on record?
**A.** -15%

**Q.** With `Cc1cccc(C(NC(=O)Cc2ccc(C(=O)O)cc2)c2ccccc2N2CCCCC2)c1` (stereo not drawn) [AB, 4-[(α-(3-Methyl-phenyl)-2-piperidino-benzyl)-aminocarbonylmethyl]-benzoic acid] as the compound, how does the change in vivo at 1 mg/kg read?
**A.** -26%

Same assay, conditions: Rattus norvegicus, po, 1 mg/kg orally, 2 hours, n.s. = not statistically significant, read-out: Blood-sugar lowering activity, percent as compared with the controls

**Q.** With `CCCC(NC(=O)Cc1ccc(C(=O)O)cc1)c1ccccc1N1CCCCC1` (racemic) [J, (±)-4-[(1-(2-Piperidino-phenyl)-1-butyl)-aminocarbonylmethyl]-benzoic acid] as the compound, how does the change in vivo at 1 mg/kg read?
**A.** -32%

**Q.** For `CC/C=C(\NC(=O)Cc1ccc(C(=O)O)cc1)c1ccccc1N1CCCCC1` [A, (Z)-4-[(1-(2-Piperidino-phenyl)-1-buten-1yl)-aminocarbonylmethyl]-benzoicacid], which change in vivo at 1 mg/kg is on record?
**A.** -40%

**Q.** With `Cc1ccc(C(NC(=O)Cc2ccc(C(=O)O)cc2)c2ccccc2N2CCCCC2)cc1` (stereo not drawn) [AA, 4-[(α-(4-Methyl-phenyl)-2-piperidino-benzyl)-aminocarbonylmethyl]-benzoic acid] as the compound, how does the change in vivo at 1 mg/kg read?
**A.** -15%

**Q.** With `Cc1cccc(C(NC(=O)Cc2ccc(C(=O)O)cc2)c2ccccc2N2CCCCC2)c1` (stereo not drawn) [AB, 4-[(α-(3-Methyl-phenyl)-2-piperidino-benzyl)-aminocarbonylmethyl]-benzoic acid] as the compound, how does the change in vivo at 1 mg/kg read?
**A.** -15%

Same assay, conditions: Rattus norvegicus, po, 1 mg/kg orally, 3 hours, n.s. = not statistically significant, read-out: Blood-sugar lowering activity, percent as compared with the controls

**Q.** Which change in vivo at 1 mg/kg does the source give for `CCCC(NC(=O)Cc1ccc(C(=O)O)cc1)c1ccccc1N1CCCCC1` (racemic) [J, (±)-4-[(1-(2-Piperidino-phenyl)-1-butyl)-aminocarbonylmethyl]-benzoic acid] here?
**A.** -34%

**Q.** With `CC/C=C(\NC(=O)Cc1ccc(C(=O)O)cc1)c1ccccc1N1CCCCC1` [A, (Z)-4-[(1-(2-Piperidino-phenyl)-1-buten-1yl)-aminocarbonylmethyl]-benzoicacid] as the compound, how does the change in vivo at 1 mg/kg read?
**A.** -33%

**Q.** Which change in vivo at 1 mg/kg does the source give for `Cc1ccc(C(NC(=O)Cc2ccc(C(=O)O)cc2)c2ccccc2N2CCCCC2)cc1` (stereo not drawn) [AA, 4-[(α-(4-Methyl-phenyl)-2-piperidino-benzyl)-aminocarbonylmethyl]-benzoic acid] here?
**A.** -13%

Same assay, conditions: Rattus norvegicus, po, 1 mg/kg orally, 4 hours, n.s. = not statistically significant, read-out: Blood-sugar lowering activity, percent as compared with the controls

**Q.** With `CCCC(NC(=O)Cc1ccc(C(=O)O)cc1)c1ccccc1N1CCCCC1` (racemic) [J, (±)-4-[(1-(2-Piperidino-phenyl)-1-butyl)-aminocarbonylmethyl]-benzoic acid] as the compound, how does the change in vivo at 1 mg/kg read?
**A.** -29%

**Q.** Which change in vivo at 1 mg/kg does the source give for `CC/C=C(\NC(=O)Cc1ccc(C(=O)O)cc1)c1ccccc1N1CCCCC1` [A, (Z)-4-[(1-(2-Piperidino-phenyl)-1-buten-1yl)-aminocarbonylmethyl]-benzoicacid] here?
**A.** -35%

Same assay, conditions: Rattus norvegicus, po, 5 mg/kg orally, 1 hour, n.s. = not statistically significant, read-out: Blood-sugar lowering activity, percent as compared with the controls

**Q.** For `CCCC(NC(=O)Cc1ccc(C(=O)O)cc1)c1ccccc1N1CCCCC1` (racemic) [J, (±)-4-[(1-(2-Piperidino-phenyl)-1-butyl)-aminocarbonylmethyl]-benzoic acid], which change in vivo at 5 mg/kg is on record?
**A.** -44%

**Q.** Which change in vivo at 5 mg/kg does the source give for `Cc1ccc(C(NC(=O)Cc2ccc(C(=O)O)cc2)c2ccccc2N2CCCCC2)cc1` (stereo not drawn) [AA, 4-[(α-(4-Methyl-phenyl)-2-piperidino-benzyl)-aminocarbonylmethyl]-benzoic acid] here?
**A.** -30%

**Q.** Which change in vivo at 5 mg/kg does the source give for `Cc1cccc(C(NC(=O)Cc2ccc(C(=O)O)cc2)c2ccccc2N2CCCCC2)c1` (stereo not drawn) [AB, 4-[(α-(3-Methyl-phenyl)-2-piperidino-benzyl)-aminocarbonylmethyl]-benzoic acid] here?
**A.** -43%

**Q.** With `O=C(Cc1ccc(C(=O)O)cc1)NC(c1ccc(F)cc1)c1ccccc1N1CCCCC1` (stereo not drawn) [AC, 4-[(α-(4-Fluoro-phenyl)-2-piperidino-benzyl)-aminocarbonylmethyl]-benzoic acid] as the compound, how does the change in vivo at 5 mg/kg read?
**A.** -36%

Same assay, conditions: Rattus norvegicus, po, 5 mg/kg orally, 2 hours, n.s. = not statistically significant, read-out: Blood-sugar lowering activity, percent as compared with the controls

**Q.** For `CCCC(NC(=O)Cc1ccc(C(=O)O)cc1)c1ccccc1N1CCCCC1` (racemic) [J, (±)-4-[(1-(2-Piperidino-phenyl)-1-butyl)-aminocarbonylmethyl]-benzoic acid], which change in vivo at 5 mg/kg is on record?
**A.** -37%

**Q.** Which change in vivo at 5 mg/kg does the source give for `Cc1ccc(C(NC(=O)Cc2ccc(C(=O)O)cc2)c2ccccc2N2CCCCC2)cc1` (stereo not drawn) [AA, 4-[(α-(4-Methyl-phenyl)-2-piperidino-benzyl)-aminocarbonylmethyl]-benzoic acid] here?
**A.** -33%

**Q.** Which change in vivo at 5 mg/kg does the source give for `Cc1cccc(C(NC(=O)Cc2ccc(C(=O)O)cc2)c2ccccc2N2CCCCC2)c1` (stereo not drawn) [AB, 4-[(α-(3-Methyl-phenyl)-2-piperidino-benzyl)-aminocarbonylmethyl]-benzoic acid] here?
**A.** -38%

**Q.** With `O=C(Cc1ccc(C(=O)O)cc1)NC(c1ccc(F)cc1)c1ccccc1N1CCCCC1` (stereo not drawn) [AC, 4-[(α-(4-Fluoro-phenyl)-2-piperidino-benzyl)-aminocarbonylmethyl]-benzoic acid] as the compound, how does the change in vivo at 5 mg/kg read?
**A.** -37%

Same assay, conditions: Rattus norvegicus, po, 5 mg/kg orally, 3 hours, n.s. = not statistically significant, read-out: Blood-sugar lowering activity, percent as compared with the controls

**Q.** For `CCCC(NC(=O)Cc1ccc(C(=O)O)cc1)c1ccccc1N1CCCCC1` (racemic) [J, (±)-4-[(1-(2-Piperidino-phenyl)-1-butyl)-aminocarbonylmethyl]-benzoic acid], which change in vivo at 5 mg/kg is on record?
**A.** -42%

**Q.** For `Cc1ccc(C(NC(=O)Cc2ccc(C(=O)O)cc2)c2ccccc2N2CCCCC2)cc1` (stereo not drawn) [AA, 4-[(α-(4-Methyl-phenyl)-2-piperidino-benzyl)-aminocarbonylmethyl]-benzoic acid], which change in vivo at 5 mg/kg is on record?
**A.** -14%

**Q.** For `Cc1cccc(C(NC(=O)Cc2ccc(C(=O)O)cc2)c2ccccc2N2CCCCC2)c1` (stereo not drawn) [AB, 4-[(α-(3-Methyl-phenyl)-2-piperidino-benzyl)-aminocarbonylmethyl]-benzoic acid], which change in vivo at 5 mg/kg is on record?
**A.** -36%

**Q.** With `O=C(Cc1ccc(C(=O)O)cc1)NC(c1ccc(F)cc1)c1ccccc1N1CCCCC1` (stereo not drawn) [AC, 4-[(α-(4-Fluoro-phenyl)-2-piperidino-benzyl)-aminocarbonylmethyl]-benzoic acid] as the compound, how does the change in vivo at 5 mg/kg read?
**A.** -36%

Same assay, conditions: Rattus norvegicus, po, 5 mg/kg orally, 4 hours, n.s. = not statistically significant, read-out: Blood-sugar lowering activity, percent as compared with the controls

**Q.** With `CCCC(NC(=O)Cc1ccc(C(=O)O)cc1)c1ccccc1N1CCCCC1` (racemic) [J, (±)-4-[(1-(2-Piperidino-phenyl)-1-butyl)-aminocarbonylmethyl]-benzoic acid] as the compound, how does the change in vivo at 5 mg/kg read?
**A.** -42%

**Q.** With `Cc1cccc(C(NC(=O)Cc2ccc(C(=O)O)cc2)c2ccccc2N2CCCCC2)c1` (stereo not drawn) [AB, 4-[(α-(3-Methyl-phenyl)-2-piperidino-benzyl)-aminocarbonylmethyl]-benzoic acid] as the compound, how does the change in vivo at 5 mg/kg read?
**A.** -27%

**Q.** With `O=C(Cc1ccc(C(=O)O)cc1)NC(c1ccc(F)cc1)c1ccccc1N1CCCCC1` (stereo not drawn) [AC, 4-[(α-(4-Fluoro-phenyl)-2-piperidino-benzyl)-aminocarbonylmethyl]-benzoic acid] as the compound, how does the change in vivo at 5 mg/kg read?
**A.** -33%

Source: US4735959A, “Carboxylic acid amides and pharmaceutical compositions containing them” (Dr. Karl Thomae GmbH, priority 1981, dated 1988)
